Our source for the ED50 and Ki values is patent US4879300A, “Novel piperidine derivatives” (Dr. Lo. Zambeletti S.p.A., priority 1986, dated 1989).

Each structure is given as a SMILES string. Read-outs that look alike come from different tables or passages of the source.

One assay concerns mice. In words: Mouse tail-flick test (analgesic activity). It counts as in vivo, mouse (male Charles River). Background: Hot-plate and tail-flick tests time the reaction to a heat stimulus.
The next assay concerns the target μ receptor (Cavia porcellus, UniProt A0ACM8Q262). In words: Receptor binding to μ sites (3H-DAGO, guinea pig brain homogenate). As to conditions: 25° C., 40 min, read-out: Receptor binding μ (kj). The protocol:
(§1) Radio receptor binding to μ and K sites is performed on fresh guinea pig brain homogenate prepared according to Kosterlitz. (1981).
(§2) Whole brain without cerebellum is homogenized in 50 mM, Tris-buffer (pH 7.4 at 0° C.) and centrifuged at 49,000 ×g×10 min.
(§3) The pellet is then resuspended in the same buffer, incubated at 37° C. for 45 min. and centrifuged again.
(§4) 1.9 ml of the final homogenate (1:100 in Tris-pH 7.4, 0° C.) is used for the binding assay.
Binding to μ sites (Magnan J., 1982)
^3 H [D-Ala^2, MePhe^4, Gly-ol^5 ] Enkephalin (^3 H--DAGO), an enkephalin analogue that binds selectively to μ receptor, is added to the biological substrate and incubated at 25° C. for 40 min., filtered through Whatman GF-C and washed with ice-cold Tris-buffer.
The filters are then dryed, solubilized in Filtercount and the radioactivity monitored. Non specific binding is determined in the presence of 10^-6 M Naloxone.
For the calculation of the kinetic parameters of the binding of labelled and unlabelled ligands, the equilibrium dissociation constant (KD), the inhibition constant (Ki) and the maximum number of binding sites (B max) are determined from saturation curves and competition experiments (Hill 1910; Scatchard 1949; Cheng and Prusoff 1973; Gillan et al. 1980).
A concentration of radioligand near KD is used in the binding assays evaluating our compounds.

The target in assay [1] is T1, K receptor (Kappa opioid receptor) (Cavia porcellus, UniProt P41144).
T1 construct: fresh guinea pig brain homogenate; from tissue; host or cells: guinea pig whole brain without cerebellum, homogenate
Put plainly: Receptor binding to K sites (tritiated Ethylketocyclazocine, guinea pig brain homogenate). As to conditions: tritiated Ethylketocyclazocine with 100 nM DADLE and 100 nM DAGO, 25° C., 40 min, read-out: Receptor binding k (kj). The method, then: as §1, §2, §3, §4
Binding to K sites (Magnan J., 1982)
The binding of tritiated Ethylketocyclazocine to brain homogenate is measured the in presence of 100 nanomolar D-Ala-D-LeuEnkephalin (DADLE) and 100 nanomolar DAGO, added to saturate the δ and μ opioid receptors respectively.
Final homogenate with solutions of the cold ligand and of the labelled ligand is incubated for 40 min. at 25° C., filtered through Whatman GF/C glass filter discs and washed.
The radioactivity bound to the filters is counted by liquid scintillation spectrophotometry.
MR 2266.500 nM is utilized to determine the saturable binding.
For the calculation of the kinetic parameters of the binding of labelled and unlabelled ligands, the equilibrium dissociation constant (KD), the inhibition constant (Ki) and the maximum number of binding sites (B max) are determined from saturation curves and competition experiments (Hill 1910; Scatchard 1949; Cheng and Prusoff 1973; Gillan et al. 1980). […]

Where [2] appears, read: sc, 0.5 h, s.c., reaction time recorded 30 min after dosing, % mice doubling initial time, read-out: Mouse tail-flick ED50 (s.c.).

T1 sequence (P41144 whole entry): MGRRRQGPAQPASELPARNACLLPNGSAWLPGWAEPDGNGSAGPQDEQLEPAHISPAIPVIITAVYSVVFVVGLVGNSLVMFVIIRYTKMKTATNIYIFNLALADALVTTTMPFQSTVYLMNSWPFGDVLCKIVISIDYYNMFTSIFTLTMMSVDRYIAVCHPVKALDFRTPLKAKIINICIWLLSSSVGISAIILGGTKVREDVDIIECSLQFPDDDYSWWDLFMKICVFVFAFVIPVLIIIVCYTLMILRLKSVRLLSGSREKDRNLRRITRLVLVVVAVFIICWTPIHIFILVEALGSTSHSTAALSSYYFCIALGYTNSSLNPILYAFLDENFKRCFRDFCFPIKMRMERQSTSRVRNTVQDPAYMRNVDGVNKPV
μ receptor, sequence (A0ACM8Q262 1-400): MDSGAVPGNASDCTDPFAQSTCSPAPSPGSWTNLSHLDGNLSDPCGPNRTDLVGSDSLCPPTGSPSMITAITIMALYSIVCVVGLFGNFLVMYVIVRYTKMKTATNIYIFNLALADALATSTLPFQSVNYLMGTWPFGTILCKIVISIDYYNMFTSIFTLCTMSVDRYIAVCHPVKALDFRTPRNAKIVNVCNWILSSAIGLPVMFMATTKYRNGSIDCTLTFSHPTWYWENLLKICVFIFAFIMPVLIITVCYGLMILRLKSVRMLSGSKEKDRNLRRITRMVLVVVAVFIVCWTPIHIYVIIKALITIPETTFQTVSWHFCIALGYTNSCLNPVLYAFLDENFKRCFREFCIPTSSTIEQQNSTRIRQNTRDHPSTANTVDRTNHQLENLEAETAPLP

As for `CC(C1CCCCN1C(=O)Cc1ccc(Cl)c(Cl)c1)N(C)C.Cl` (single isomer, unassigned; diastereoisomer b) [Example 4, 1-(3,4-dichlorophenylacetyl)-2-(1-dimethylaminoethyl) piperidine hydrochloride--Diastereoisomer B], the ED50 (commonly the dose that gives a 50% effect, or the effect in half of the subjects) worked out at 0.75 mg/kg with mice (po, read-out: Mouse tail-flick ED50 (p.o.)) and 0.41 mg/kg in the assay with mice (setting [2]). In addition, the results for the Ki (on μ receptor; in assay [1]) were 913 nM and 2.3 nM, respectively.
In the case of `CC(C1CCCCN1C(=O)Cc1ccc(Cl)c(Cl)c1)N1CCCC1` (single isomer, unassigned; diastereoisomer b) [Example 2, 1-(3,4-dichlorophenylacetyl)-2-[1-(1-pyrrolidinyl)ethylpiperidine]--Diastereoisomer B], the ED50 in the assay with mice (setting [2]) was determined as 4.12 mg/kg.
